Results on six compounds are retold here after patent US11325899B2, “Benzofurane and benzothiophene derivatives as PGE2 receptor modulators” (IDORSIA PHARMACEUTICALS LTD, priority 2017, dated 2022).

T1 sequence (P43116 whole entry): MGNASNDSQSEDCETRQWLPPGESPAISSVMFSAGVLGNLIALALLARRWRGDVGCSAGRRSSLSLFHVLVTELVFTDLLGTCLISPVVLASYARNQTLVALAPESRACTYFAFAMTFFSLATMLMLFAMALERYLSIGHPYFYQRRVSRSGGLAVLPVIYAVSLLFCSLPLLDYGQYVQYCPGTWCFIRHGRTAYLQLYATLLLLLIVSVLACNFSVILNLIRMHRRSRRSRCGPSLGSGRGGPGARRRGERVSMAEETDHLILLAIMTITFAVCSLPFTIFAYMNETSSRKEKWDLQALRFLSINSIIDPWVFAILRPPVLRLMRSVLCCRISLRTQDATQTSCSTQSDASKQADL

This experiment concerns the target T1, EP2 receptor (Homo sapiens, UniProt P43116).
T1 construct: SF295 glioblastoma cells express high endogenous EP2 and no EP4; host or cells: SF295 glioblastoma cells
The experiment in a line: hEP2 cAMP assay (SF295 glioblastoma cells, HTRF cAMP, PGE2 stimulation). The class given is cell-based. The following applies: antagonistic activity. In short, it runs like this:
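SF295 glioblastoma cells with endogenous EP2 and no EP4, in HBSS/HEPES/BSA with 2 mM IBMX, pre-incubated 45 min at room temperature with compound, then stimulated 30 min with 75 nM PGE2 (EC80). cAMP measured by HTRF; IC50 fitted from duplicate % cAMP versus DMSO control.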
In general terms: Cyclic AMP is a second messenger, typically raised through Gs and lowered through Gi signalling.
`CCOc1cc(-c2cc(NCCc3c(C#N)sc4c(C)cc(F)cc34)ncn2)ccc1OCCC(=O)O` [Example 176, 3-(4-{6-[2-(2-Cyano-5-fluoro-7-methyl-benzo[b]thiophen-3-yl)-ethylamino]-pyrimidin-4-yl}-2-ethoxy-phenoxy)-propionic acid] registered an IC50 of 37 nM. Turning to `Cc1sc2c(C)cc(F)cc2c1CCNc1cc(-c2ccc(CC(=O)O)c(CC(C)C)c2)ncn1` [Example 182, (4-{6-[2-(5-Fluoro-2,7-dimethyl-benzo[b]thiophen-3-yl)-ethylamino]-pyrimidin-4-yl}-2-isobutyl-phenyl)-acetic acid], 617 nM corresponded to half-maximal inhibition (IC50). This IC50 lies about 17-fold higher than the previous one. `Cc1sc2c(C)cc(F)cc2c1CCNc1cc(-c2ccc(C(=O)O)c(OCC(C)C)c2)ncn1` [Example 184, 4-{6-[2-(5-Fluoro-2,7-dimethyl-benzo[b]thiophen-3-yl)-ethylamino]-pyrimidin-4-yl}-2-isobutoxy-benzoic acid] registered an IC50 of 39 nM. Compared with the last compound, the IC50 is about 16-fold lower. Compound `CCCc1cc(-c2cc(NCCc3c(C)sc4c(C)cc(F)cc34)ncn2)ccc1CC(=O)O` [Example 186, (4-{6-[2-(5-Fluoro-2,7-dimethyl-benzo[b]thiophen-3-yl)-ethylamino]-pyrimidin-4-yl}-2-propyl-phenyl)-acetic acid] gave an IC50 of 309 nM.

The compound `CCOc1cc(-c2cc(NCCc3c(C)sc4c(C)cc(F)cc34)ncn2)ccc1C(=O)C(=O)O` [Example 189, (2-Ethoxy-4-{6-[2-(5-fluoro-2,7-dimethyl-benzo[b]thiophen-3-yl)-ethylamino]-pyrimidin-4-yl}-phenyl)-oxo-acetic acid] displayed an IC50 of 27 nM.

Take `CCCOc1cc(-c2cc(NCCc3c(C)sc4c(C)cc(F)cc34)ncn2)ccc1CC(=O)O` [Example 190, (4-{6-[2-(5-Fluoro-2,7-dimethyl-benzo[b]thiophen-3-yl)-ethylamino]-pyrimidin-4-yl}-2-propoxy-phenyl)-acetic acid]: 274 nM corresponded to half-maximal inhibition (IC50).

In general, IC50 refers to the concentration at which inhibition is half-maximal. A high value points to weaker potency.
